Results filed as inconclusive are left out. The source made the active and inactive calls. The rule behind the calls is not given here.
Test system: S. typhimurium/E. coli reverse mutation, colony counts
Experiment: Bacterial reverse mutation test (aka Ames test) summary data;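 note: His-minus Salmonella and trp-minus E. coli WP2 uvrA pKM101 with or without liver S9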
Text: The Ames test uses bacteria cultures to determine whether a substance causes mutations. Because there is a significant overlap between substances that are mutagens and those that are carcinogens, a quick and inexpensive mutagenicity test is useful as an initial screening for possible carcinogens.
The Ames test relies on specific strains of S. typhimurium, namely: TA97, TA98, TA100, TA102, TA104, TA1535, TA1537, and TA1538. In addition to the S. typhimurium strains, the test may also use the E. coli strain WP2 uvrA pKM101.
Each of the bacterial strains has a mutation that prevents it from making an amino acid (a protein building block) required for normal cell growth. The S. typhimurium strains are unable to manufacture histidine; the E. coli strain cannot manufacture tryptophan. The tester strains will not be able to grow without amino acid supplementation, unless the mutated gene is changed back to the correct DNA sequence (reversion mutation). Being exposed to a mutagenic chemical increases the chance that the mutant gene will be restored to the correct sequence, which allows the bacteria to grow and form colonies. Each substance under study is tested in a variety of bacterial strains with different types of altered DNA sequences in order to provide a comprehensive assessment of the mutagenic potential of the substance.
Some non-mutagenic substances are converted to mutagenic substances when metabolized by the liver; in contrast, some substances that are mutagenic in their natural state are converted to non-mutagens by the liver. All substances are tested in their natural state, as well as in the presence of liver enzymes that can produce this metabolic conversion of the test substance. Extracts of rat, hamster, or mouse liver enzymes (S9 mix) are used for this purpose.
D. Preparing the Cultures
Multiple sets of cultures are prepared using a range of doses and different amounts of liver enzymes for each bacterial strain. Each culture is prepared in a test tube containing a suspension of one bacterial strain and either an S9 mix or plain buffer solution. Then the test substance is added. Negative control cultures are established using the same ingredients, but without the test substance. Positive control cultures are established using known mutagens active in particular bacterial strains and metabolic conditions (for example, with or without S9). Once prepared, each culture is incubated for 20 minutes at 37° C. Agar is then added to the cultures, and the contents of each tube are poured onto the surface of a Petri dish that was prepared with standard bacterial culture medium. The plates are then incubated, usually for two days.
Depending on the substance to be tested, the exposure and incubation processes may be modified. These variations include:
- Elimination of the 20-minute incubation period in a test tube prior to plating (this method is referred to as the standard plate incorporation method)
- Enzymatic reduction of azo and diazo substances (this process occurs in the intestine or liver of animals) using a chemical called flavin mononucleotide (FMN) or intestinal bacterial preparations from rats
- Testing in sealed chambers such as desiccators for volatile and gaseous chemicals.
To validate the test, a trained investigator compares the number of colonies on the chemical-treated plates to the number of colonies on the negative control plates. If the substance under test is mutagenic, the chemical-treated plates will have a much greater number of colonies than the negative control plates.
- A positive response is a reproducible, dose-related increase in mutant colonies in any single strain, with or without the addition of S9 metabolic enzymes. While there is no minimum percentage of increase required for a result to be considered positive, a twofold increase in mutant colonies in a treated plate is usually considered to be a positive (mutagenic) response.
[…]

Compound	outcome
Cc1ccccc1O	inactive; negative
CN(C)CCC(c1ccccc1)c1ccccn1 (configuration not stated)	inactive; negative
O=C(O)c1cc(O)c2c(c1)C(=O)c1cccc(O)c1C2=O	active; positive
c1cc2c3c(cccc3c1)CC2	inactive; negative
COc1cc2c(c(OC)c1OC)-c1ccc(OC)c(=O)cc1[C@@H](NC(C)=O)CC2	inactive; negative
Clc1nc(Cl)nc(Nc2ccccc2Cl)n1	inactive; negative
C1CN1c1nc(N2CC2)nc(N2CC2)n1	active; positive
NC(=O)/C(=C\c1ccc([N+](=O)[O-])o1)c1ccco1	active; positive
C=C	inactive; negative
Cc1cc(N=Nc2c(O)ccc3ccccc23)c(S(=O)(=O)O)cc1Cl	active; weakly positive
NCCc1ccc(O)c(O)c1	active; weakly positive
CNN	inactive; negative
COc1ccc(CN(CCN(C)C)c2ncccn2)cc1	inactive; negative
CN(C)C(=O)Nc1ccc(Cl)cc1	inactive; negative
O=C(O)CN(CC(=O)O)CC(=O)O	inactive; negative
c1ccc2c(c1)oc1ccccc12	inactive; negative
c1ccc(N=Nc2ccccc2)cc1	active; positive
CC(=O)NS(=O)(=O)c1ccc(N)cc1	inactive; negative
Cc1cc(C)cc([N+](=O)[O-])c1	active; positive
CCCCCCCCCC=CCC1CC(=O)OC1=O (configuration not stated)	inactive; negative
CC(C)(C)c1ccc(O)c(O)c1	inactive; negative
O=C(O)CSCC(=O)O	inactive; negative

Compound	outcome
Cl	inactive; negative
CCCCO	inactive; negative
C[C@H]1CCCC(=O)CCC/C=C/c2cc(O)cc(O)c2C(=O)O1	inactive; negative
O=CC=O	active; positive
c1ccc2occc2c1	inactive; negative
CC(C)N	inactive; negative
CCCCC(CC)COCCCN (configuration not stated)	inactive; negative
C=C[C@H]1CN2CC[C@H]1C[C@@H]2[C@@H](O)c1ccnc2ccc(OC)cc12	inactive; negative
OCC(Cl)CCl (configuration not stated)	active; positive
CCC(O)CN (configuration not stated)	inactive; negative
CCCCCCCCC	inactive; negative
Nc1ccc2cc(S(=O)(=O)O)c(N=Nc3ccc(-c4ccc(N=Nc5ccc(O)c(C(=O)O)c5)cc4)cc3)c(O)c2c1	active; positive
C=CC(=O)OCC(Br)CBr (configuration not stated)	active; positive
CCCC(=O)O	inactive; negative
C=CC(C)C#N (configuration not stated)	active; weakly positive
Cc1ccc(N)c(C)c1	active; positive
CCC(C)c1ccccc1O (configuration not stated)	inactive; negative
Cc1ccccc1Br	inactive; negative
Nc1n[nH]c(N)n1	inactive; negative
CC1CCCC1	inactive; negative
c1cc2c3c(c1)ccc1cccc(c13)C2	active; positive
O=S(=O)(c1ccc(Cl)cc1)c1ccc(Cl)cc1	inactive; negative

Compound	outcome
CC(=O)OCCC(C)C	inactive; negative
CCC(C)O (configuration not stated)	inactive; negative
CCNCC	inactive; negative
O=C(CCl)c1ccccc1	inactive; negative
O=[N+]([O-])c1cc(Cl)c(Cl)c(Cl)c1Cl	inactive; negative
NS(=O)(=O)c1cc2c(cc1Cl)NC=NS2(=O)=O	inactive; negative
CC(=O)CC(N)=O	active; positive
O=C1CN(N=Cc2ccc([N+](=O)[O-])o2)C(=O)N1	active; positive
CNc1ccc2nc3ccc(=[N+](C)C)cc-3sc2c1	active; positive
CC(O)CN(CC(C)O)CC(C)O (configuration not stated)	inactive; negative
[CH3][Sn]([CH3])([F])[F]	inactive; negative
CCc1cccc(C)c1N	inactive; negative
Nc1cccc(O)c1	active; positive
CCC=CC#N	inactive; negative
C=CC(=O)OCC(CC)(COC(=O)C=C)COC(=O)C=C	inactive; negative
O=C(Cl)C(Cl)Cl	active; positive
CCOC(=O)CC	inactive; negative
Clc1cc(Cl)c(Cl)cc1Cl	inactive; negative
NCCNCCNCCN	active; positive
ClC1=C(Cl)[C@]2(Cl)[C@@H]3[C@H]4C[C@H]([C@@H]5O[C@H]45)[C@@H]3[C@@]1(Cl)C2(Cl)Cl	inactive; negative
C=CC(=O)OCC(CO)(COCC(COC(=O)C=C)(COC(=O)C=C)COC(=O)C=C)COC(=O)C=C	inactive; negative
CN(C)C	inactive; negative

Compound	outcome
CCc1cc(C(N)=S)ccn1	inactive; negative
CN(C)c1ccc(C(=N)c2ccc(N(C)C)cc2)cc1	active; positive
CCCCC(CC)COC(=O)CCCCC(=O)O (configuration not stated)	inactive; negative
O=C1NC(=O)c2cc([N+](=O)[O-])ccc21	active; positive
CC(=O)NNC(=O)c1ccccn1	inactive; negative
CC=C1CC2C=CC1C2 (configuration not stated)	inactive; negative
CCCCCCCCn1sccc1=O	inactive; negative
Cc1coc2c1CCC(C)C2 (configuration not stated)	inactive; negative
COc1cc(-c2ccc(N=Nc3c(S(=O)(=O)O)cc4cc(S(=O)(=O)O)cc(O)c4c3O)c(OC)c2)ccc1N=Nc1c(S(=O)(=O)O)cc2cc(S(=O)(=O)O)cc(O)c2c1O	inactive; negative
CC(C)C(C)C	inactive; negative
C1CN(CCOCCN2CCOCC2)CCO1	inactive; negative
c1ccc(N(c2ccccc2)c2ccccc2)cc1	inactive; negative
CC(O)CN(C)C (configuration not stated)	inactive; negative
CN(C)CCN(Cc1cccs1)c1ccccn1	inactive; negative
COc1ccc(C(=O)Nc2ccccc2)cc1[N+](=O)[O-]	active; positive
Cl[C@@H]1C2(Cl)C3C4[C@@H]5O[C@@H]5[C@H]5C3[C@@](Cl)(C2(Cl)Cl)[C@]1(Cl)[C@@H]45 (some centres not stated)	active; positive
[O-][Br+2]([O-])O	active; positive
COC(=O)NC(=S)Nc1ccccc1NC(=S)NC(=O)OC	active; positive
CCCCCCCCCCCCS	inactive; negative
O=C1O[C@H]([C@@H](O)CO)C(O)=C1O	active; weakly positive
CC(=O)O[C@]1(C(C)=O)CC[C@H]2[C@@H]3C[C@H](C)C4=CC(=O)CC[C@]4(C)[C@H]3CC[C@@]21C	inactive; negative
BrC(Br)C(Br)Br	inactive; negative

Compound	outcome
CCOC(=O)CBr	active; positive
c1ccc(Nc2ccc(Nc3ccccc3)cc2)cc1	active; positive
CC(=O)OC(C(=O)c1ccccc1)c1ccccc1 (configuration not stated)	inactive; negative
O=[N+]([O-])c1ccc(Cl)c(Cl)c1	active; positive
C=CC(=O)NCCNC(=O)C=C	active; positive
CCCCCCCCOc1ccc(C(=O)O)cc1	inactive; negative
CCCCOc1ccc(C=Nc2ccc(CC)cc2)cc1	active; weakly positive
OCc1ccco1	inactive; negative
NCCCOCCOCCOCCCN	inactive; negative
C=Cc1ccccn1	active; positive
COCCOCCOC	inactive; negative
c1ccc(-c2ccccc2)cc1	inactive; negative
C=CC(=O)CC	active; positive
COC(=O)c1ccc(C=O)cc1	inactive; negative
Cc1ccc(S(=O)(=O)NC2CCCCC2)cc1	inactive; negative
CN(C)CCN(Cc1ccsc1)c1ccccn1	inactive; negative
CCCC[N+](=O)[O-]	inactive; negative
O=Cc1cccc(Br)c1	inactive; negative
C[CH2][Pb]([CH2]C)([CH2]C)[CH2]C	inactive; negative

From PubChem BioAssay AID2202554 (NIEHS Division of Translational Toxicology (DTT))
